# Measured values reported in ChEMBL document CHEMBL2440003, “Novel BACE1 inhibitors with a non-acidic heterocycle at the P1' position” (Bioorg Med Chem, 2013).
# Columns and labels:
# Beta-secretase 1 [1] = biological target: T1, Beta-secretase 1 (Homo sapiens, UniProt P56817); assay: Inhibition of recombinant human BACE1 at 2 uM by FRET analysis
# Beta-secretase 1 [2] = biological target: T1, Beta-secretase 1; assay: Inhibition of recombinant human BACE1 at 0.2 uM by FRET analysis
# Renin = biological target: T2, Renin (Homo sapiens, UniProt P00797); assay: Inhibition of human renin
# T2 sequence (P00797 whole entry): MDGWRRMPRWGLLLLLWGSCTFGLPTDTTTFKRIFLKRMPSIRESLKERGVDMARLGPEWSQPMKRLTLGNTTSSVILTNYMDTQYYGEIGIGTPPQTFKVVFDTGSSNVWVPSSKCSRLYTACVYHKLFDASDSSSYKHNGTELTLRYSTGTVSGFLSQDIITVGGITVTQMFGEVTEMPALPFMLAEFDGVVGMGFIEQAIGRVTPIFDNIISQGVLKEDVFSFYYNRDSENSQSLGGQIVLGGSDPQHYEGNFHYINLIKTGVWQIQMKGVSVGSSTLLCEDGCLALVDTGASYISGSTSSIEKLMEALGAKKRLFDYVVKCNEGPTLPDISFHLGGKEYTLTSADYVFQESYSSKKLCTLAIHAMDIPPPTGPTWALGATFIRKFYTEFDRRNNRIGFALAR
# Beta-secretase 1 [3] = biological target: T1, Beta-secretase 1; assay: Inhibition of recombinant human BACE1 by FRET analysis
# T1 sequence (P56817 whole entry): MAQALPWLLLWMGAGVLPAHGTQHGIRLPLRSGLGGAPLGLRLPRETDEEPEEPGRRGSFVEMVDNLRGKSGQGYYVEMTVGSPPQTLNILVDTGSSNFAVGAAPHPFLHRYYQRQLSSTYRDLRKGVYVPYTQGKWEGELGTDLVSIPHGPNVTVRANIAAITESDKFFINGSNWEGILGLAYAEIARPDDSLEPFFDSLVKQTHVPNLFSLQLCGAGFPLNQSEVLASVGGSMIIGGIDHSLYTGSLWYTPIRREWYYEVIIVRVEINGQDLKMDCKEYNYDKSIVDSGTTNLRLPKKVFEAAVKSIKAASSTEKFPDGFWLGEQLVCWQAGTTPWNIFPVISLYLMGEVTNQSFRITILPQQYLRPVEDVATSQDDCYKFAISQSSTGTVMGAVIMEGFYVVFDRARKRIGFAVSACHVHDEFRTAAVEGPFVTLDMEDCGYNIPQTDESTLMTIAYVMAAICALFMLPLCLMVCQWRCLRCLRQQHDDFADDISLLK
inhibition (Beta-secretase 1 [1]) [%],inhibition (Beta-secretase 1 [2]) [%],IC50 (Renin) [µM],IC50 (Beta-secretase 1 [3]) [nM],Structure (SMILES)
48,,,,C[C@@H](NC(=O)c1cc(C(=O)N[C@@H](Cc2ccccc2)[C@@H](O)C(=O)Nc2nccs2)cc(N(C)S(C)(=O)=O)c1)c1ccccc1
83,39,,,C[C@@H](NC(=O)c1cc(C(=O)N[C@@H](Cc2ccccc2)[C@@H](O)C(=O)Nc2nncs2)cc(N(C)S(C)(=O)=O)c1)c1ccccc1
96,73,,,C[C@@H](NC(=O)c1cc(C(=O)N[C@@H](Cc2ccccc2)[C@@H](O)C(=O)Nc2ncc([N+](=O)[O-])s2)cc(N(C)S(C)(=O)=O)c1)c1ccccc1
48,,,,C[C@@H](NC(=O)c1cc(C(=O)N[C@@H](Cc2ccccc2)[C@@H](O)C(=O)Nc2nnc(C(C)(C)C)s2)cc(N(C)S(C)(=O)=O)c1)c1ccccc1
86,45,,,CCSc1nnc(NC(=O)[C@H](O)[C@H](Cc2ccccc2)NC(=O)c2cc(C(=O)N[C@H](C)c3ccccc3)cc(N(C)S(C)(=O)=O)c2)s1
,,> 50,,C[C@@H](NC(=O)c1cc(C(=O)N[C@@H](Cc2ccccc2)[C@H](O)CNC2CC2)cc(N(C)S(C)(=O)=O)c1)c1ccccc1
90,50,,,Cc1nnc(NC(=O)[C@H](O)[C@H](Cc2ccccc2)NC(=O)c2cc(C(=O)N[C@H](C)c3ccccc3)cc(N(C)S(C)(=O)=O)c2)s1
38,,,,C[C@@H](NC(=O)c1cc(C(=O)N[C@@H](Cc2ccccc2)[C@H](O)C(=O)Nc2nncs2)cc(N(C)S(C)(=O)=O)c1)c1ccccc1
88,51,,,CCc1nnc(NC(=O)[C@H](O)[C@H](Cc2ccccc2)NC(=O)c2cc(C(=O)N[C@H](C)c3ccccc3)cc(N(C)S(C)(=O)=O)c2)s1
49,,,,C[C@@H](NC(=O)c1cc(C(=O)N[C@@H](Cc2ccccc2)[C@@H](O)C(=O)Nc2nnc(-c3ccncc3)s2)cc(N(C)S(C)(=O)=O)c1)c1ccccc1
96,75,,,C[C@@H](NC(=O)c1cc(C(=O)N[C@@H](Cc2ccccc2)[C@@H](O)C(=O)Nc2nnc(C(F)(F)F)s2)cc(N(C)S(C)(=O)=O)c1)c1ccccc1
78,,,,C[C@@H](NC(=O)c1cc(C(=O)N[C@@H](Cc2ccccc2)[C@@H](O)C(=O)Nc2ncc(Br)s2)cc(N(C)S(C)(=O)=O)c1)c1ccccc1
97,79,,26,C[C@@H](NC(=O)c1cc(C(=O)N[C@@H](Cc2ccccc2)[C@@H](O)C(=O)Nc2nnc(Br)s2)cc(N(C)S(C)(=O)=O)c1)c1ccccc1
87,56,,,COC(=O)c1cnc(NC(=O)[C@H](O)[C@H](Cc2ccccc2)NC(=O)c2cc(C(=O)N[C@H](C)c3ccccc3)cc(N(C)S(C)(=O)=O)c2)s1
58,,,,Cc1nnc(NC(=O)[C@@H](O)[C@H](Cc2ccccc2)NC(=O)c2cc(C(=O)N[C@H](C)c3ccccc3)cc(N(C)S(C)(=O)=O)c2)s1
29,,,,C[C@@H](NC(=O)c1cc(C(=O)N[C@@H](Cc2ccccc2)[C@@H](O)C(=O)Nc2nc3ccccc3s2)cc(N(C)S(C)(=O)=O)c1)c1ccccc1
43,,,,C[C@@H](NC(=O)c1cc(C(=O)N[C@@H](Cc2ccccc2)[C@@H](O)C(=O)Nc2nnc(-c3ccccc3)s2)cc(N(C)S(C)(=O)=O)c1)c1ccccc1
19,,,,C[C@@H](NC(=O)c1cc(C(=O)N[C@@H](Cc2ccccc2)[C@H](O)C(=O)Nc2nccs2)cc(N(C)S(C)(=O)=O)c1)c1ccccc1
84,43,,,CSc1nnc(NC(=O)[C@H](O)[C@H](Cc2ccccc2)NC(=O)c2cc(C(=O)N[C@H](C)c3ccccc3)cc(N(C)S(C)(=O)=O)c2)s1
5,,,,C[C@@H](NC(=O)c1cc(C(=O)N[C@@H](Cc2ccccc2)[C@H](O)C(=O)Nc2nc3ccccc3s2)cc(N(C)S(C)(=O)=O)c1)c1ccccc1
30,,,,COC(=O)c1csc(NC(=O)[C@H](O)[C@H](Cc2ccccc2)NC(=O)c2cc(C(=O)N[C@H](C)c3ccccc3)cc(N(C)S(C)(=O)=O)c2)n1
